Measurements: ChEMBL document CHEMBL1156829 (Proc Natl Acad Sci U S A, 2008)

How the values were obtained:
Plasmodium falciparum [1] = experiment: NOVARTIS: Inhibition of Plasmodium falciparum W2 (drug-resistant) proliferation in erythrocyte-based infection assay; format: functional, organism-based; conditions: Plasmodium falciparum, W2; read-out: EC50
Plasmodium falciparum [2] = experiment: NOVARTIS: Inhibition of Plasmodium falciparum 3D7 (drug-susceptible) proliferation in erythrocyte-based infection assay; format: functional, organism-based; conditions: Plasmodium falciparum, 3D7
[3] = NOVARTIS: Cytotoxicity against human hepatocellular carcinoma cell line (Huh7); format: toxicity, cell-based, Huh-7; conditions: Huh7 cells (hepatocellular carcinoma cell line)

| SMILES | EC50 (Plasmodium falciparum [1]) [nM] | EC50 (Plasmodium falciparum [2]) [nM] | CC50 [3] [nM] |
| --- | --- | --- | --- |
| N=C(N)NN=Cc1cccc(OCc2ccc(Cl)c(Cl)c2)c1 | 1690 | 1990 | > 10000 |
| COc1ccc(N=C2NC(=O)/C(=C\c3ccc(N(C)C)cc3)S2)cc1 | > 1680 | 1020 | > 10000 |
| CSc1ccc(Cl)c(Cl)c1 | 398 | 83.9 | 2350 |
| COc1cc(Nc2nccn3c(-c4ccsc4)cnc23)cc(OC)c1OC | 1650 | > 1250 | > 10000 |
| Cc1ccc(S(=O)(=O)NC(Cc2ccccc2)C(=O)N2CCC(C3CCN(C(=O)c4ccc([N+](=O)[O-])o4)CC3)CC2)cc1 (configuration not stated) | > 1680 | 1910 | > 10000 |
| O=C(NCCCN1CCCC1=O)c1ccc2nc(N3CCOCC3)sc2c1 | 4690 | 7240 | 26800 |
| CCCOc1ccc(C(=O)Nc2cccc(-c3nc4ncccc4o3)c2)cc1 | > 1750 | 415 | > 10000 |
| CCCCC(=O)Nc1ccccc1-c1nnn(CC(=O)Nc2ccc3c(c2)OCCO3)n1 | > 1670 | > 1140 | > 10000 |
| N#CC1=C(N)Oc2c(c(=O)oc3ccccc23)C1c1ccoc1 (configuration not stated) | > 1660 | > 1160 | > 10000 |
| Cc1cccc(OCC(=O)NCCNC2=NS(=O)(=O)c3ccccc32)c1 | 1680 | > 1120 | > 10000 |
| CCOC(=O)c1c(NC(=O)CSc2nnc(CNC(=O)c3cccc(OC)c3)n2C2CCCCC2)sc2c1CCCC2 | > 1670 | > 295 | > 10000 |
| CNc1nc(Cl)nc(Nc2ccccc2)n1 | 1650 | > 482 | > 10000 |
| Cc1ccc(Nc2nc3c(N)nnc(N)c3nc2Nc2ccc(C)cc2)cc1 | 2210 | 6120 | 13300 |
| CCOC(=O)N1CCN(C(=O)c2cnc3ccc(C)cn3c2=O)CC1 | > 1660 | > 355 | > 10000 |
| CCOC(=O)c1[nH]c(C)c(CNc2cccc(F)c2)c1C | 1660 | 1060 | > 10000 |
| COC(=O)C1=C(C)Nc2[nH]c(=S)[nH]c(=O)c2C1c1ccccc1F (configuration not stated) | > 1650 | 1280 | > 10000 |
| COc1cccc(CN2CCC(O)(c3ccc4oc(C(=O)Nc5ccc(Cl)cc5)cc4c3)CC2)c1 | 4060 | 2160 | 24700 |
| O=c1c2ccccc2nc(/C=C/c2ccc([N+](=O)[O-])o2)n1-c1ccc(Br)cc1 | > 1640 | 902 | > 10000 |
| CCOC(=O)c1[nH]c(C)c(CNc2cccc(OC)c2)c1C | 1200 | 1510 | 6980 |
| O=C(NC(C(=O)c1ccccc1)N1CCCCC1)c1ccco1 (configuration not stated) | > 1760 | > 831 | > 10000 |
| Oc1ccccc1C=NNc1nnc2c3ccccc3n(Cc3ccccc3)c2n1 | > 1720 | > 832 | > 10000 |
| Brc1cc(Br)c2c(-c3ccccc3)n(-c3ccccc3)nc(-c3ccccc3)c1-2 | > 1710 | 753 | > 10000 |
| CN1CCN(N/C=C2/C(=O)N(c3nc4ccccc4s3)N=C2c2ccccc2)CC1 | > 1740 | > 549 | > 10000 |
| C[C@@H]1C[C@@H](C)C(=O)[C@@H](C(O)CC2CC(=O)NC(=O)C2)C1 (some centres not stated) | 366 | 153 | 2140 |
| COc1ccc(-c2ccc(C(=O)N(C)Cc3cscn3)c(N3CCC(N4CCc5ccccc5C4)CC3)n2)cc1 | 1750 | > 1250 | > 10000 |
| COc1cc(-c2nc(-c3ccccc3)c(-c3ccc(O)cc3)[nH]2)cc(OC)c1O | > 1750 | 879 | > 10000 |
| CCOC(=O)C1=C(C)N/C(=C\c2cc(C)n(-c3ccc(C)cc3C)c2C)C1=O | 1740 | > 1250 | > 10000 |

| SMILES | EC50 (Plasmodium falciparum [1]) [nM] | EC50 (Plasmodium falciparum [2]) [nM] | CC50 [3] [nM] |
| --- | --- | --- | --- |
| CCOC(=O)c1cnc2ccc(OC)cc2c1Nc1ccc(N2CCN(C)CC2)cc1 | > 1700 | 1090 | > 10000 |
| CCCCNC(=O)c1ccc2c(c1)N=C(CC(C)c1ccccc1)N(C1CCCCC1)C2 (configuration not stated) | 8210 | 1450 | 48700 |
| COc1ccc(C2N=C(N)N=C(N)N2c2ccc(C)cc2)cc1 (configuration not stated) | > 1640 | 73.8 | > 10000 |
| Cc1ccc2nc(-c3ccccc3)cc(C(=O)Nc3ccc(Cl)c(Cl)c3)c2c1 | 1700 | > 1250 | > 10000 |
| N#Cc1c(NC(=O)CCl)c(C(=O)c2ccccc2)n2c1CCC2 | > 12500 | 298 | > 74200 |
| COc1cc(/C=C(\C#N)c2nc3ccccc3[nH]2)ccc1OCc1ccccc1Cl | 1670 | > 1250 | > 10000 |
| O=C(c1ccncc1)N1N=C(C(F)(F)F)CC1(O)c1cccc([N+](=O)[O-])c1 (configuration not stated) | > 1680 | > 1220 | > 10000 |
| Cc1cc(Nc2ccc(Br)cc2)nc2ccccc12 | 1690 | > 1250 | > 10000 |
| O=C(Cn1c2ccccc2c(=O)c2cc(Cl)ccc21)Nc1cccc(C(F)(F)F)c1 | 1650 | > 1360 | > 10000 |
| CC[n+]1c(/C=C(C)/C=C2\Sc3ccccc3N2CCO)sc2ccccc21 | 1640 | > 1250 | > 10000 |
| CCN1C(=O)NC(c2cccc(NC(=O)Nc3cc(C(F)(F)F)cc(C(F)(F)F)c3)c2)C(C(=O)OC(C)C)=C1C (configuration not stated) | 6010 | 8420 | 35300 |
| O=C(Nc1ccc(N2CCCCC2)cc1)c1cc2ccccc2o1 | 634 | > 1300 | > 3660 |
| COC(=O)C1=C(OC)C(=O)OC12C=CC(=O)C=C2 | 423 | 2220 | 2520 |
| O=C(Nc1ccc(C(c2ccccc2)(c2ccccc2)c2ccc(NC(=O)c3cccc([N+](=O)[O-])c3)cc2)cc1)c1cccc([N+](=O)[O-])c1 | 1680 | > 1250 | > 10000 |
| CC(C)c1ccc(C=NNC(=O)c2ccccc2O)cc1 | 1680 | > 1250 | > 10000 |
| O=c1nc(/C=C/c2ccc(Cl)cc2)oc2ccccc12 | > 1660 | 1850 | > 10000 |
| CC(C)CCn1c(NCc2ccccc2)nc2c1c(=O)n(CC(N)=O)c(=O)n2C | 1710 | > 1250 | > 10000 |
| C[n+]1ccc(C2OC2c2ccccc2)c2ccccc21 (configuration not stated) | 1740 | 1380 | > 10000 |
| Cc1cc(Nc2ccc(Cl)cc2)n2nnnc2n1 | 1750 | > 1640 | > 10000 |
| Cc1nnc2sc(SCc3ccc([N+](=O)[O-])cc3)nn2c1=O | > 1640 | > 481 | > 10000 |
| COc1ccc([C@@H]2Nc3ccc(C(C)=O)cc3[C@@H]3C=CC[C@@H]32)cc1[N+](=O)[O-] | 1760 | > 1250 | > 10000 |
| CN(C)CCNc1cc(-c2cccc(C(F)(F)F)c2)nc(-c2ccncc2)n1 | 1680 | > 1250 | > 10000 |
| COCCCNC(=O)CSCc1nc(-c2ccccc2F)oc1C | > 1740 | > 467 | > 10000 |
| CCSc1ncnc2scc(-c3ccccc3)c12 | 1710 | > 1510 | > 10000 |
| COc1ccc(C(NC(=O)COc2ccccc2)c2cc(Cl)c3cccnc3c2O)cc1OC (configuration not stated) | 3080 | 4660 | 18500 |
| COc1ccc(-c2cc(C(=O)NCc3cccnc3)no2)cc1OC | 1700 | > 1290 | > 10000 |
| COc1ccccc1NC(=O)Cn1cnc2sc(C(=O)Nc3ccc(F)cc3)c(C)c2c1=O | > 1710 | 513 | > 10000 |
